These results are taken from ChEMBL document CHEMBL1131977, “Synthesis and in vitro activity of new oxazolidinone antibacterial agents having substituted isoxazoles” (1999).

One may read the MIC as the lowest concentration found to suppress growth. Lower therefore signals greater potency.

Assay type in all cases: functional
Assay [1] deals with Staphylococcus epidermidis. In words: In vitro antibacterial activity against Staphylococcus epidermis (S.e.2) C2235.
For assay [2], the system named is Staphylococcus aureus. In words: In vitro antibacterial activity against methicillin-susceptible Staphylococcus aureus (MSSA) C2214.
Another assay deals with Enterococcus faecalis. In words: In vitro antibacterial activity against Enterococcus faecalis C6291 (E.f.1).
The test system of assay [3] is Staphylococcus aureus. In words: In vitro antibacterial activity against Staphylococcus aureus (S. a.) ATCC 29213.
Assay [4] relates to Staphylococcus epidermidis. The experiment in a line: In vitro antibacterial activity against Staphylococcus epidermis (S.e.1) […].
For assay [5], the system named is Enterococcus faecium. In words: In vitro antibacterial activity against Enterococcus faecium C6301 (E.f.2).
Assay [6] relates to Staphylococcus aureus. In words: In vitro antibacterial activity against ciprofloxacin-resistant Staphylococcus aureus (CRSA) C6043.
Assay [7] relates to Streptococcus pyogenes. The experiment in a line: In vitro antibacterial activity against Streptococcus pyogenes ATCC 8668 (S.p.1).
Assay [8] concerns Staphylococcus aureus. The experiment in a line: In vitro antibacterial activity against methicillin-resistant Staphylococcus aureus (MRSA) C6068.
For assay [9], the system named is Enterococcus faecium. In words: In vitro antibacterial activity against vancomycin-resistant Enterococcus faecium C6487 (VRE).
For assay [10], the system named is Streptococcus pyogenes. The experiment in a line: In vitro antibacterial activity against Streptococcus pyogenes C6003 (S.p.2).

Converted amounts (≈) assume the structure as drawn. Bounds are passed on as bounds.

Consider `CC(=O)NC[C@H]1CN(c2ccc(N3CCN(C(=O)c4cccs4)CC3)c(F)c2)C(=O)O1`, for which the MIC in [1] is 1 µg/mL (≈ 2.24 µM); with Staphylococcus aureus [2], 2 µg/mL (≈ 4.48 µM); with Enterococcus faecalis, 2 µg/mL (≈ 4.48 µM); in the assay with Staphylococcus aureus [3], 2 µg/mL (≈ 4.48 µM); in [4], 0.5 µg/mL (≈ 1.12 µM); in the assay with Enterococcus faecium [5] it was 2 µg/mL (≈ 4.48 µM). Further, the MIC in the assay on Staphylococcus aureus [6] worked out at 2 µg/mL (≈ 4.48 µM); in the assay on Streptococcus pyogenes [7] it was 1 µg/mL (≈ 2.24 µM); against Staphylococcus aureus [8], 1 µg/mL (≈ 2.24 µM); in the assay on Enterococcus faecium [9], 2 µg/mL (≈ 4.48 µM); against Streptococcus pyogenes [10], 1 µg/mL (≈ 2.24 µM).

With `CC(=O)NC[C@H]1CN(c2ccc(N3CCN(Cc4cc(-c5ccc(C#N)cc5)no4)CC3)c(F)c2)C(=O)O1`, the MIC in assay [1] came to 8 µg/mL (≈ 15.4 µM); with Staphylococcus aureus [2], 16 µg/mL (≈ 30.9 µM); against Enterococcus faecalis, 16 µg/mL (≈ 30.9 µM); against Staphylococcus aureus [3], 16 µg/mL (≈ 30.9 µM); in [4], 4 µg/mL (≈ 7.71 µM); in the assay on Enterococcus faecium [5] it was 16 µg/mL (≈ 30.9 µM). For the same compound, the MIC in the assay on Staphylococcus aureus [6] is 16 µg/mL (≈ 30.9 µM); in the assay with Streptococcus pyogenes [7], 2 µg/mL (≈ 3.86 µM); against Staphylococcus aureus [8], 8 µg/mL (≈ 15.4 µM); in the assay with Enterococcus faecium [9] it was 8 µg/mL (≈ 15.4 µM); against Streptococcus pyogenes [10], 2 µg/mL (≈ 3.86 µM).

For `CC(=O)NC[C@H]1CN(c2ccc(N3CCN(C(=O)c4cc(C(=O)O)no4)CC3)c(F)c2)C(=O)O1`, the MIC (in assay [1]; in the assay on Staphylococcus aureus [2]; in the assay with Enterococcus faecalis; in the assay with Staphylococcus aureus [3]; in [4]; against Enterococcus faecium [5]) was more than 32 µg/mL each time. For the same compound, the MIC in the assay with Streptococcus pyogenes [7] and with Streptococcus pyogenes [10] was 16 µg/mL (≈ 33.7 µM) throughout.

On to `CC(=O)NC[C@H]1CN(c2ccc(N3CCN(Cc4cc(/C=C/c5ccccc5)no4)CC3)c(F)c2)C(=O)O1`, for which the MIC in [1] was 16 µg/mL (≈ 30.8 µM); against Staphylococcus aureus [2] it was more than 32 µg/mL; with Enterococcus faecalis, 16 µg/mL (≈ 30.8 µM); in the assay with Staphylococcus aureus [3], more than 32 µg/mL; in assay [4] it was 2 µg/mL (≈ 3.85 µM); in the assay with Enterococcus faecium [5], 8 µg/mL (≈ 15.4 µM). In addition, the MIC with Streptococcus pyogenes [7] is 2 µg/mL (≈ 3.85 µM); in the assay on Staphylococcus aureus [8], 32 µg/mL (≈ 61.6 µM); with Enterococcus faecium [9], 8 µg/mL (≈ 15.4 µM); in the assay with Streptococcus pyogenes [10], 2 µg/mL (≈ 3.85 µM).

In the case of `CC(=O)NC[C@H]1CN(c2ccc(N3CCN(C(=O)c4cc(O)no4)CC3)c(F)c2)C(=O)O1`, the MIC (in [1]; against Staphylococcus aureus [2]; against Enterococcus faecalis; in the assay with Staphylococcus aureus [3]; in [4]; with Enterococcus faecium [5]) was more than 32 µg/mL throughout. Also, the MIC with Streptococcus pyogenes [7] and in the assay with Streptococcus pyogenes [10] was 16 µg/mL (≈ 35.8 µM) throughout.

In the case of `CC(=O)NC[C@H]1CN(c2ccc(N3CCN(C(=O)c4cc(OCCF)no4)CC3)c(F)c2)C(=O)O1`, the MIC in assay [1] worked out at 2 µg/mL (≈ 4.05 µM); with Staphylococcus aureus [2] it was 2 µg/mL (≈ 4.05 µM); against Enterococcus faecalis it was 2 µg/mL (≈ 4.05 µM); against Staphylococcus aureus [3], 4 µg/mL (≈ 8.11 µM); in assay [4], 1 µg/mL (≈ 2.03 µM); with Enterococcus faecium [5], 1 µg/mL (≈ 2.03 µM). Besides, the MIC against Staphylococcus aureus [6] was found to be 2 µg/mL (≈ 4.05 µM); in the assay on Streptococcus pyogenes [7] it was 0.5 µg/mL (≈ 1.01 µM); against Staphylococcus aureus [8] it was 2 µg/mL (≈ 4.05 µM); in the assay with Enterococcus faecium [9], 1 µg/mL (≈ 2.03 µM); in the assay with Streptococcus pyogenes [10], 0.5 µg/mL (≈ 1.01 µM).

With `CC(=O)NC[C@H]1CN(c2ccc(N3CCOCC3)c(F)c2)C(=O)O1` [LINEZOLID], the MIC in [1] was found to be 1 µg/mL (≈ 2.96 µM); in assay [4], 1 µg/mL (≈ 2.96 µM); against Enterococcus faecium [5], 1 µg/mL (≈ 2.96 µM); against Streptococcus pyogenes [7] it was 0.5 µg/mL (≈ 1.48 µM); against Staphylococcus aureus [8], 1 µg/mL (≈ 2.96 µM); with Enterococcus faecium [9], 2 µg/mL (≈ 5.93 µM). The MIC against Streptococcus pyogenes [10] turned out to be 0.5 µg/mL (≈ 1.48 µM).

Consider `CN[C@H](CC(C)C)C(=O)N[C@H]1C(=O)N[C@@H](CC(N)=O)C(=O)N[C@H]2C(=O)N[C@H]3C(=O)N[C@H](C(=O)N[C@H](C(=O)O)c4cc(O)cc(O)c4-c4cc3ccc4O)[C@H](O)c3ccc(c(Cl)c3)Oc3cc2cc(c3O[C@@H]2O[C@H](CO)[C@@H](O)[C@H](O)[C@H]2O[C@H]2C[C@](C)(N)[C@H](O)[C@H](C)O2)Oc2ccc(cc2Cl)[C@H]1O` [VANCOMYCIN], for which the MIC in the assay on Enterococcus faecalis was 1 µg/mL (≈ 0.69 µM); in assay [4], 0.5 µg/mL (≈ 0.345 µM); in the assay on Streptococcus pyogenes [7], 0.25 µg/mL (≈ 0.173 µM); with Enterococcus faecium [9] it was more than 32 µg/mL; with Streptococcus pyogenes [10] it was 0.25 µg/mL (≈ 0.173 µM).
